Source: patent publication US7585895B2, “Therapeutic substituted cyclopentanes” (Allergan, Inc., priority 2005, dated 2009)

Experiments:
[1] = biological target: T1, EP4 receptors (Homo sapiens, UniProt P35408); assay: Radioligand binding, [3H]PGE2, EP4 (Ki); conditions: HEK-293 cells stably expressing EP4, [3H]PGE2
T1 construct: expressed in transfected cells; membrane pellet
Procedure: HEK-293 cells stably expressing the human or feline FP receptor, or EP1, EP2, or EP4 receptors were washed with TME buffer, scraped from the bottom of the flasks, and homogenized for 30 sec using a Brinkman PT 10/35 polytron. TME buffer was added to achieve a final 40 ml volume in the centrifuge tubes (the composition of TME is 100 mM TRIS base, 20 mM MgCl2, […]; 10N HCl is added to achieve a pH of 7.4).
The cell homogenate was centrifuged at 19000 r.p.m. for 20 min at 4° C using a Beckman Ti-60 rotor. The resultant pellet was resuspended in TME buffer to give a final 1 mg/ml protein concentration, as determined by Biorad assay. Radioligand binding competition assays vs. [^3H-]17-phenyl PGF2α. (5 nM) were performed in a 100 μl volume for 60 min. Binding reactions were started by adding plasma membrane fraction. The reaction was terminated by the addition of 4 ml ice-cold TRIS-HCl buffer and rapid filtration through glass fiber GF/B filters using a Brandel cell harvester. The filters were washed 3 times with ice-cold buffer and oven dried for one hour.
[^3H-] PGE2 (specific activity 180 Ci mmol) was used as the radioligand for EP receptors. [^3H] 17-phenyl PGF2α, was employed for FP receptor binding studies. Binding studies employing EP1, EP2, EP4 and FP receptors were performed in duplicate in at least three separate experiments. A 200 μl assay volume was used. Incubations were for 60 min at 25° C. and were terminated by the addition of 4 ml of ice-cold 50 mM TRIS-HCl, followed by rapid filtration through Whatman GF/B filters and three additional 4 ml washes in a cell harvester (Brandel). Competition studies were performed using a final concentration of 5 nM [^3H]-PGE2, or 5 nM [^3H] 17-phenyl PGF2αand non-specific binding determined with 10^−5M of unlabeled PGE2, or 17-phenyl PGF2α, according to receptor subtype studied.

[2] = biological target: T2, hEP2/Gqs5 (Homo sapiens, UniProt P43116); assay: FLIPR calcium signal, EP2; type: cell-based; conditions: HEK-293(EBNA), value outside parentheses, read-out: Ca2+ Signal-EC50 (nM) EP2
T2 construct: expressed in transfected cells
T2 sequence (P43116 whole entry): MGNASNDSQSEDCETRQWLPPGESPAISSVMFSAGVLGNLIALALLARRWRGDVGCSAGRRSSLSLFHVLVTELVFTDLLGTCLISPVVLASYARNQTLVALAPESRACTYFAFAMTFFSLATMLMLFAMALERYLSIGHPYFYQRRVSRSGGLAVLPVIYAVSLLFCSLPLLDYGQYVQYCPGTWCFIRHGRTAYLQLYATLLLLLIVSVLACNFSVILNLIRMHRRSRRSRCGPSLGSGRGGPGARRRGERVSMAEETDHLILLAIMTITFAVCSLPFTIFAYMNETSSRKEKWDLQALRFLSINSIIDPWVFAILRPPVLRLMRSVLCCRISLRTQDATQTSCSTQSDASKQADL
Procedure: (§1) HEK-293(EBNA) cells, stably expressing one type or subtype of recombinant human prostaglandin receptors (prostaglandin receptors expressed: hDP/Gqs5; hEP1; hEP2/Gqs5; hEP3A/Gqi5; hEP4/Gqs5; hFP; hIP; hTP), were cultured in 100 mm culture dishes in high-glucose DMEM medium containing 10% fetal bovine serum, 2 mM 1-glutamine, 250 μg/ml geneticin (G418) and 200 μg/ml hygromycin B as selection markers, and 100 units/ml penicillin G, 100 μg/ml streptomycin and 0.25 μg/ml amphotericin B.
(§2) Cells were seeded at a density of 5×10^4 cells per well in Biocoat® Poly-D-lysine-coated black-wall, clear-bottom 96-well plates (Becton-Dickinson) and allowed to attach overnight in an incubator at 37° C. Cells were then washed two times with HBSS-HEPES buffer (Hanks Balanced Salt Solution without bicarbonate and phenol red, 20 mM HEPES, pH 7.4) using a Denley Cellwash plate washer (Labsystems). After 45 minutes of dye-loading in the dark, using the calcium-sensitive dye Fluo-4 AM at a final concentration of 2 μM, plates were washed four times with HBSS-HEPES buffer to remove excess dye leaving 100 μl in each well. Plates were re-equilibrated to 37° C. for a few minutes.
(§3) Cells were excited with an Argon laser at 488 nm, and emission was measured through a 510-570 nm bandwidth emission filter (FLIPR™, Molecular Devices, Sunnyvale, Calif.). Drug solution was added in a 50 μl volume to each well to give the desired final concentration. The peak increase in fluorescence intensity was recorded for each well. On each plate, four wells each served as negative (HBSS-HEPES buffer) and positive controls (standard agonists: BW245C (hDP); PGE2 (HEP1; hEP2/Gqs5; hEP3A/Gqi5; hEP4/Gqs5); PGF2α (hFP); carbacyclin (hIP); U-46619 (hTP), depending on receptor). The peak fluorescence change in each drug-containing well was then expressed relative to the controls.
(§4) Compounds were tested in a high-throughput (HTS) or concentration-response (CoRe) format. In the HTS format, forty-four compounds per plate were examined in duplicates at a concentration of 10^−5 M. To generate concentration-response curves, four compounds per plate were tested in duplicates in a concentration range between 10^−5 and 10^−11 M. The duplicate values were averaged. In either, HTS or CoRe format each compound was tested on at least 3 separate plates using cells from different passages to give an n≧3.

[3] = biological target: T3, hDP/Gqs5 (Homo sapiens, UniProt Q13258); assay: FLIPR calcium signal, DP; type: cell-based; conditions: HEK-293(EBNA)
T3 construct: expressed in transfected cells
T3 sequence (Q13258 1-359): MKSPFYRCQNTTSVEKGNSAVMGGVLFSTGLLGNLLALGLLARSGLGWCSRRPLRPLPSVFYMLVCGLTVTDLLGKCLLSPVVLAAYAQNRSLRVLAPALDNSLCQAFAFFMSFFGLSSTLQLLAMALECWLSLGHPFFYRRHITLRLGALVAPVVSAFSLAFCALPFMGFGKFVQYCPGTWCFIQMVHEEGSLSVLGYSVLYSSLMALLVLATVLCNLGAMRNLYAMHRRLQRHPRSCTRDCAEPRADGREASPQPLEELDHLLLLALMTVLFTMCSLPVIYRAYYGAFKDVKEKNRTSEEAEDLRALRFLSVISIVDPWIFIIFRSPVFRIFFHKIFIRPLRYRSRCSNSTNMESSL
Procedure: as §1, §2, §3, §4

[4] = biological target: T4, hEP3A/Gqi5 (Homo sapiens, UniProt P43115); assay: FLIPR calcium signal, EP3; type: cell-based; conditions: HEK-293(EBNA); for EC50: read-out: Ca2+ Signal-EC50 (nM) EP3
T4 construct: expressed in transfected cells
T4 sequence (P43115 1-390): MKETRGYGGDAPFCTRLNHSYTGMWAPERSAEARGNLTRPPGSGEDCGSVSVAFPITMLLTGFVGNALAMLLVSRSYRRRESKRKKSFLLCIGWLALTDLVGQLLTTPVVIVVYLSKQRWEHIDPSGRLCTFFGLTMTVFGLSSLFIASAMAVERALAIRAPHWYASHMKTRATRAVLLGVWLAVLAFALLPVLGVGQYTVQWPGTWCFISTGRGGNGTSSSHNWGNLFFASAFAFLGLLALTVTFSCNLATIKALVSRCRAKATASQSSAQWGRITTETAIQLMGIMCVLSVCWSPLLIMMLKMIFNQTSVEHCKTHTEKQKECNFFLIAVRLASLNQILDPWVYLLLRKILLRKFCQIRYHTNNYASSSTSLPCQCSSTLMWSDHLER
Procedure: as §1, §2, §3, §4

[5] = biological target: T5, hEP4/Gqs5 (Homo sapiens, UniProt P35408); assay: FLIPR calcium signal, EP4; type: cell-based; conditions: HEK-293(EBNA); for EC50: read-out: Ca2+ Signal-EC50 (nM) EP4
T5 construct: expressed in transfected cells
T5 sequence (P35408 whole entry): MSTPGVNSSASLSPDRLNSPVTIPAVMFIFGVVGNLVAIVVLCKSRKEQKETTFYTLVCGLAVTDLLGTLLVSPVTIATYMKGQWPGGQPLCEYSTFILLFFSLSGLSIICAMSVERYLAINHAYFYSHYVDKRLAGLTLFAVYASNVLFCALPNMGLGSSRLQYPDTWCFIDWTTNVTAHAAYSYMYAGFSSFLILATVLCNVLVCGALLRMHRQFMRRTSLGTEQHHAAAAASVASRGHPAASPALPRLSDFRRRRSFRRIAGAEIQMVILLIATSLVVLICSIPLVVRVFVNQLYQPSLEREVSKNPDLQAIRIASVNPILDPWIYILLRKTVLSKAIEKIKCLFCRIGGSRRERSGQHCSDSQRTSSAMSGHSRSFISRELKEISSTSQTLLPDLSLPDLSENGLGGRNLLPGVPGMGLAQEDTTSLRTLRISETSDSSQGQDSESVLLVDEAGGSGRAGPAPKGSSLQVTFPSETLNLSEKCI
Procedure: as §1, §2, §3, §4

T1 sequence (P35408 whole entry): as above

Compound	Ki [1] [nM]	EC50 [2] [nM]	Ca2+ Signal-EC50 (nM) DP [3]	EC50 [4] [nM]	Ca2+ Signal-EC50 (nM) EP4 [5]	EC50 [5] [nM]	Ca2+ Signal-EC50 (nM) EP3 [4]
CCCCCC(O)c1ccc([C@@H]2[C@@H](CCCc3ccc(C(=O)O)s3)[C@H](Cl)C[C@H]2O)cc1 (stereo partly drawn) [Entry 2, 5-(3-{(1R,2S,3R,5R)-5-Chloro-3-hydroxy-2-[4-(1-hydroxy-hexyl)-phenyl]-cyclopentyl}-propyl)-thiophene-2-carboxylic acid]	3020	4	not active	348	not active	–	–
CCCCCC(O)c1ccc([C@@H]2[C@@H](C/C=C\CCCC(=O)O)[C@H](Cl)C[C@H]2O)cc1 (single isomer, unassigned) [Entry 13]	> 10000	11	not active	3000	–	> 10000	–
O=C(O)CCC/C=C\C[C@@H]1[C@@H](c2ccc(C(O)CC3CCCCC3)cc2)[C@H](O)C[C@H]1Cl (mixture of isomers) [Entry 17, (Z)-7-{(1R,2S,3R,5R)-5-Chloro-2-[4-(2-cyclohexyl-1-hydroxy-ethyl)-phenyl]-3-hydroxy-cyclopentyl}-hept-5-enoic acid]	15900	953	not active	–	not active	–	not active
O=C(O)CCC/C=C\C[C@@H]1[C@@H](c2ccc(C(O)CCC3CCCCC3)cc2)[C@H](O)C[C@H]1Cl (stereo partly drawn) [Entry 15, (Z)-7-{(1R,2S,3R,5R)-5-Chloro-2-[4-(3-cyclohexyl-1-hydroxy-propyl)-phenyl]-3-hydroxy-cyclopentyl}-hept-5-enoic acid]	3810	495	not active	2220	not active	–	–
O=C(O)CCCCCC[C@@H]1[C@@H](c2ccc(C(O)CC3CCCCC3)cc2)[C@H](O)C[C@H]1Cl (stereo partly drawn) [Entry 18, 7-{(1R,2S,3R,5R)-5-Chloro-2-[4-(2-cyclohexyl-1-hydroxy-ethyl)-phenyl]-3-hydroxy-cyclopentyl}-heptanoic acid]	4940	2250	not active	–	–	> 10000	not active
O=C(O)CCCCCC[C@@H]1[C@@H](c2ccc(C(O)Cc3ccccc3)cc2)[C@H](O)C[C@H]1Cl (stereo partly drawn) [Entry 22, 7-{(1 R,2S,3R,5R)-5-Chloro-3-hydroxy-2-[4-(1-hydroxy-2-phenyl-ethyl)-phenyl]-cyclopentyl}-heptanoic acid]	> 10000	51	not active	–	–	15800	not active
CCCCCC(O)c1ccc([C@@H]2[C@@H](CCCCCCC(=O)O)[C@H](Cl)C[C@H]2O)cc1 (stereo partly drawn) [Entry 14, 7-{(1R,2S,3R,5R)-5-Chloro-3-hydroxy-2-[4-(1-hydroxy-hexyl)-phenyl]-cyclopentyl}-heptanoic acid]	8610	28	not active	477	–	> 10000	–
CCCC(O)c1ccc([C@@H]2[C@@H](C/C=C\CCCC(=O)O)[C@H](Cl)C[C@H]2O)cc1 (stereo partly drawn) [Entry 26, (Z)-7-{(1R,2S,3R,5R)-5-Chloro-3-hydroxy-2-[4-(1-hydroxy-butyl)-phenyl]-cyclopentyl}-hept-5-enoic acid]	> 10000	154	not active	–	not active	–	not active
O=C(O)CCC/C=C\C[C@@H]1[C@@H](c2ccc(C(O)Cc3ccccc3)cc2)[C@H](O)C[C@H]1Cl (mixture of isomers) [Entry 21, (Z)-7-{(1R,2S,3R,5R)-5-Chloro-3-hydroxy-2-[4-(1-hydroxy-2-phenyl-ethyl)-phenyl]-cyclopentyl}-hept-5-enoic acid]	> 10000	9	not active	–	–	> 10000	not active
